# Experimental data from US8575376B2, “Steroide anionic compounds, method of their production, usage and pharmaceutical preparation involving them” (Ustav Organicke Chemie A Biochemie Akademie Ved Ceske …, priority 2009, dated 2013).
# Assays:
# Format in all cases: in vivo, rat
# [1] = tested on: rats; assay: Elevated plus maze (anxiety)
# Procedure: The effect of i.p. administration of compound from example 9 in doses of 0.001, 0.01, and 10 mg/kg on behaviour in elevated plus maze was evaluated. The number of entrances into open arms and the total time spent in open arms were assessed.
# The apparatus consisted of two opposite open arms (45 cm×10 cm) crossed at right angles with two opposite arms of the same size enclosed by walls 40 cm high, except for the central part where the arms crossed. The whole apparatus was elevated 50 cm above the floor.
# [2] = tested on: rats; assay: Forced swim test; settings: 1 mg/kg i.p., 60 min prior, p<0.001
# Procedure: Forced swim test is an experimental model of depression and excessive stress used in laboratory rodents. Rats were randomly assigned to two groups of seven animals each. Control group received an injection of cyclodextrine (i.p.) 60 min. prior to experiment, while experimental group was injected i.p. with the compound from example 9 in a dose of 1 mg/kg 60 minutes prior to the experiment. Rats were forced to swim by being individually placed into a bucket (30 cm diameter, 28 cm height) containing water (25° C.). Immobility (floating) in the water is interpreted as a state of despair when the animals realize that an escape is impossible. Immobility was defined as floating (as opposed to active swimming) with minimal effort required for keeping the head above water. All animals received a single 30-minute trial and their behaviour was monitored by an experimenter. The trial was divided into six 5-minute intervals and floating of at least 30 second duration within each interval was recorded by the experimenter.
# [3] = tested on: rats; assay: Open-field locomotion in MK-801 animal model of schizophrenia
# Procedure: The effect of the compound from example 9 in doses of 0.1 mg/kg and 1 mg/kg on locomotor activity in open field test was evaluated. Locomotor activity expressed as a total distance travelled during 30 min exploration of a box (68×68×30 cm) located in a sound proof room was measured using a video tracking system for automation of the behavioural experiments (Noldus, EthoVision, Version 2.1.).
# [4] = tested on: rats; assay: Ischemic-hypoxic brain damage (bilateral carotid occlusion + 10% O2): AAPA, rotarod, beam walking
# Procedure: The effect of compound from example 9 on cognitive coordination and motor activity was examined in stroke model of ischemic brain injury. Ischemic-hypoxic damage was induced by bilateral occlusion of common carotid arteries and subsequent confinement in box with 10% O2 (for 30 min). The animals were injected i.p. by compound from example 9 dissolved in β-cyclodextrine (1 mg/kg) immediately after their removal from box. Ischemic group was injected only by β-cyclodextrine in the same time and volume. Surgery was conducted under anesthesia (xylazine 6 mg/kg, thiopental 50 mg/kg).
# It is known that ischemia-hypoxia causes neuronal necrosis in specifically vulnerable areas of brain. The two-vessel occlusion/hypoxic model gives rise to stroke changes, for example in cells of the hippocampus, caudatoputamen and neocortex. As such structures are intimately involved in memory, cognitive and motor processes, ischemia/hypoxia leads to impairment in these functions. Used animal model of stroke damage dealing with ischemia/hypoxia has enabled the identification of deleterious phenomena that may be corrected or neutralized by drugs.
# The effect of ischemic was evaluated a week after surgical procedures in AAPA task, beam walking and rotarod. Ischemia led to deterioration of motor activity (rotarod and beam walking) and deficit in cognitive coordination.
# [5] = tested on: Long-Evans rats; assay: Scopolamine-induced cognitive deficit in AAPA (model of Alzheimer disease); settings: Example 9 1 ml/kg of 1.0 mg/ml i.p. + scopolamine 2.0 mg/kg
# Procedure: The effect of the compound from example 9 on an animal model of age-related cognitive decline and neurodegenerative disorders (including Alzheimer disease) is documented. In the present experiment the effect of central muscarinic blockade by systemic administration of scopolamine at dose 2.0 mg/kg on both reinforced retention of the AAPA and re-acquisition of the AAPA in a new environment was investigated (by the standard method described previously; see Vales and Stuchlik, 2005).
# The compound from example 9 was dissolved in β-cyclodextrine (at a concentration of 1.0 mg/ml). Animals were injected intraperitoneally with 1 ml/kg b.w. of this solution or with 1 ml/kg b.w. of β-cyclodextrine. All animals thus received the same volume of liquid per body weight in each injection. Injections were delivered 40 min prior to behavioural testing). Scopolamine hydrobromide (scopolamine; Sigma Aldrich) was dissolved in saline (0.9% NaCl, 2.0 mg/ml). Animals were injected intraperitoneally with 1 ml/kg b.w. of this solution or with 1 ml/kg b.w. of saline. All animals thus received the same volume of liquid per body weight in each injection. Injections were delivered 20 min prior to behavioural testing. Adult male hooded rats of the Long-Evans strain (3 months old; weighing 300-400g) was used.
# The active allothetic place avoidance apparatus is described in example 28. […]
# [6] = 1 mg/kg i.p. immediately after hypoxia, tested a week later
smiles,measurement,setting,value
"CC(=O)[C@H]1CC[C@H]2[C@@H]3CC[C@@H]4C[C@H](OC(=O)[C@@H](N)CCC(=O)O)CC[C@]4(C)[C@H]3CC[C@]12C [Example 9, 20-Oxo-5β-pregnan-3α-yl L-glutamyl 1-ester]",anxiolytic effect in elevated plus maze,"[1]; 0.001, 0.01 and 10 mg/kg i.p.",pronounced dose-dependent anxiolytic effect
same,number of entries into open arms,"[1]; 10 mg/kg i.p., p<0.05 vs control",significant increase of number of entries into open arms
same,time spent floating / time to immobility in forced swim test,[2],"spent significantly less time by floating, in comparison to controls"
same,hyperlocomotion induced by MK-801 in open field,[3]; Example 9 0.1 or 1 mg/kg + MK-801 0.1 mg/kg,has not effect on hyperlocomotion state induced by MK-801
same,"locomotion in open field (total distance, 30 min)","[3]; substance alone, Example 9 0.1 and 1 mg/kg, MK-801 0.1 mg/kg",did not produce locomotor alterations in the open-field test
same,total path in AAPA after ischemia/hypoxia,[4]; 1 mg/kg i.p.,None of the experimental condition affected locomotion in AAPA
same,cognitive deficit in AAPA (entrances) after ischemia/hypoxia,[4]; [6],improves cognitive deficit induced by ischemic/hypoxic procedures in AAPA task
same,motor changes in rotarod and beam walking after ischemia/hypoxia,[4]; [6],has no effect on disturbance of motor changes in rotarod and beam walking test
same,scopolamine-induced deficit in AAPA (number of entrances),[5],tends to be decreased
